Consider three compounds from article PMC6259456, “Inhibitory Effects of Phylligenin and Quebrachitol Isolated from Mitrephora vulpina on Platelet Activating Factor Receptor Binding and Platelet Aggregation” (Molecules, 2010).

pIC50: −log10 of the molar value. Where two headings read alike, the source gives them in different places.

The assay deals with T1, platelet activating factor (PAF) receptor (Oryctolagus cuniculus, UniProt G1TEI7).
T1 construct: gene PTAFR; native receptor on washed rabbit platelets
T1 sequence (G1TEI7 1-342): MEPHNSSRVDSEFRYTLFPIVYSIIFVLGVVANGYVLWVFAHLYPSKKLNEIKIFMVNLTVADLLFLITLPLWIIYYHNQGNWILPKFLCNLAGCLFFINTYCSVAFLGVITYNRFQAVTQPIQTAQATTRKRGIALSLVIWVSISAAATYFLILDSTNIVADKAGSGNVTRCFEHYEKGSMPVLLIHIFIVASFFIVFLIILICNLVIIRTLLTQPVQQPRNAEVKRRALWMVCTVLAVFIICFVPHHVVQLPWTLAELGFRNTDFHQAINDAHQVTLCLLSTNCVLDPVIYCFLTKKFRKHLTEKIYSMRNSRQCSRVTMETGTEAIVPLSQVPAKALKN
The assay can be described thus: 3H-PAF radioligand displacement on washed rabbit platelets. In kind it is cell-based. In general terms: In a radioligand displacement assay an active substance lowers the binding of a labelled ligand.

One may read the pIC50 as the IC50 on a negative log10 scale, so that one unit is a factor of ten. Consider `C[C@@H]1CC[C@H]2C(C)(C)[C@H]3C[C@@]12CC[C@@]3(C)O` [cedrol, reference compound], for which the pIC50 (read-out: IC50) was 4.97.

For `COc1cc([C@H]2OC[C@H]3[C@@H]2CO[C@H]3c2ccc(OC)c(OC)c2)ccc1O` [phylligenin], the pIC50 was 4.88.

With `CO[C@H]1[C@H](O)[C@@H](O)[C@H](O)[C@H](O)[C@H]1O` [quebrachitol, 2-O-methyl-L-chiro-inositol], the pIC50 (read-out: IC50) is 4.37.
